Test results reported in US11053204B2, “Pyrimidinyloxy benzene derivatives as herbicides” (FMC Corporation, priority 2015, dated 2021).

Key:
Type in all cases: in vivo
[1] = tested on: large (Lg) crabgrass (Digitaria sanguinalis); assay: Test A postemergence, visual injury rating; settings: 0 is no effect, 100 is complete control
In short: (§1)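 Pre- and postemergence greenhouse screen. Soil: loam + sand. Spray carrier: solvent mixture, non-phytotoxic, with surfactant. Post timing at 1–2 leaves, height 2–10 cm. Readout: visual injury on a 0–100 scale roughly 10 days after application, untreated plants as reference.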

[2] = tested on: wheat (Triticum aestivum); assay: Test A postemergence, visual injury rating; settings: 0 is no effect, 100 is complete control
In short: as §1

[3] = tested on: morningglory (Ipomoea spp.); assay: Test A postemergence, visual injury rating; settings: 500 g ai/ha, 0 is no effect, 100 is complete control
In short: as §1

corn (Zea mays) [4] = assay: Test A postemergence, visual injury rating; settings: 0 is no effect, 100 is complete control
In short: as §1

[5] = tested on: pigweed (Amaranthus retroflexus); assay: Test A postemergence, visual injury rating; settings: 0 is no effect, 100 is complete control
In short: as §1

[6] = tested on: barnyardgrass (Echinochloa crus-galli); assay: Test A postemergence, visual injury rating; settings: 0 is no effect, 100 is complete control
In short: as §1

[7] = tested on: velvetleaf (Abutilon theophrasti); assay: Test A postemergence, visual injury rating; settings: 0 is no effect, 100 is complete control
In short: as §1

[8] = tested on: giant foxtail (Setaria faberii); assay: Test A postemergence, visual injury rating; settings: 0 is no effect, 100 is complete control
In short: as §1

[9] = tested on: large (Lg) crabgrass (Digitaria sanguinalis); assay: Test A preemergence, visual injury rating; settings: 0 to 100 scale (0 no effect, 100 complete control)
In short: as §1

[10] = tested on: wheat (Triticum aestivum); assay: Test A preemergence, visual injury rating; settings: 0 to 100 scale (0 no effect, 100 complete control)
In short: as §1

[11] = tested on: morningglory (Ipomoea spp.); assay: Test A preemergence, visual injury rating; settings: 500 g ai/ha, 0 to 100 scale (0 no effect, 100 complete control)
In short: as §1

corn (Zea mays) [12] = assay: Test A preemergence, visual injury rating; settings: 0 to 100 scale (0 no effect, 100 complete control)
In short: as §1

[13] = tested on: pigweed (Amaranthus retroflexus); assay: Test A preemergence, visual injury rating; settings: 0 to 100 scale (0 no effect, 100 complete control)
In short: as §1

[14] = tested on: barnyardgrass (Echinochloa crus-galli); assay: Test A preemergence, visual injury rating; settings: 0 to 100 scale (0 no effect, 100 complete control)
In short: as §1

[15] = tested on: velvetleaf (Abutilon theophrasti); assay: Test A preemergence, visual injury rating; settings: 0 to 100 scale (0 no effect, 100 complete control)
In short: as §1

[16] = tested on: giant foxtail (Setaria faberii); assay: Test A preemergence, visual injury rating; settings: 0 to 100 scale (0 no effect, 100 complete control)
In short: as §1

[17] = tested on: ducksalad (Heteranthera limosa); assay: Test B flooded paddy test, plant response rating; settings: 250 g ai/ha; Flood; scale of 0 to 100 where 0 is no effect and 100 is complete control; 13 to 15 days
In short: (§2)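 Pots were flooded to 3 cm above the soil surface at treatment, compound applied directly to the paddy water, and that depth held throughout. Plants were kept in a greenhouse for 13 to 15 days, then visually rated against untreated controls.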

rice (Oryza sativa) = assay: Test B flooded paddy test, plant response rating; settings: 250 g ai/ha; Flood; scale of 0 to 100 where 0 is no effect and 100 is complete control; 13 to 15 days
In short: as §2

[18] = tested on: barnyardgrass (Echinochloa crus-galli); assay: Test B flooded paddy test, plant response rating; settings: 250 g ai/ha; Flood; scale of 0 to 100 where 0 is no effect and 100 is complete control; 13 to 15 days
In short: as §2

[19] = tested on: sedge, umbrella (small-flower umbrella sedge, Cyperus difformis); assay: Test B flooded paddy test, plant response rating; settings: 250 g ai/ha; Flood; scale of 0 to 100 where 0 is no effect and 100 is complete control; 13 to 15 days
In short: as §2

| SMILES | Crabgrass, Large plant response rating (0 to 100 scale) ([1]; 1000 g ai/ha) | Wheat plant response rating (0 to 100 scale) ([2]; 1000 g ai/ha) | Corn plant response rating (0 to 100 scale) (corn (Zea mays) [4]; 1000 g ai/ha) | Pigweed plant response rating (0 to 100 scale) ([5]; 1000 g ai/ha) | Barnyardgrass plant response rating (0 to 100 scale) ([6]; 1000 g ai/ha) | Velvetleaf plant response rating (0 to 100 scale) ([7]; 1000 g ai/ha) | Foxtail, Giant plant response rating (0 to 100 scale) ([8]; 1000 g ai/ha) | Crabgrass, Large plant response rating ([9]; 1000 g ai/ha) | Wheat plant response rating ([10]; 1000 g ai/ha) | Corn plant response rating (corn (Zea mays) [12]; 1000 g ai/ha) | Pigweed plant response rating ([13]; 1000 g ai/ha) | Barnyardgrass plant response rating ([14]; 1000 g ai/ha) | Velvetleaf plant response rating ([15]; 1000 g ai/ha) | Foxtail, Giant plant response rating ([16]; 1000 g ai/ha) | also measured |
| --- | --- | --- | --- | --- | --- | --- | --- | --- | --- | --- | --- | --- | --- | --- | --- |
| O=C(NCC(F)(F)F)c1ccccc1Oc1ncc(Br)cn1 [Compound 27] |  |  |  |  |  |  |  |  |  |  |  |  |  |  | Crabgrass, Large plant response rating (0 to 100 scale) ([1]; 500 g ai/ha): 0; Wheat plant response rating (0 to 100 scale) ([2]; 500 g ai/ha): 0; Morningglory plant response rating (0 to 100 scale) [3]: 0; Corn plant response rating (0 to 100 scale) (corn (Zea mays) [4]; 500 g ai/ha): 0; Pigweed plant response rating (0 to 100 scale) ([5]; 500 g ai/ha): 0; Barnyardgrass plant response rating (0 to 100 scale) ([6]; 500 g ai/ha): 0; Velvetleaf plant response rating (0 to 100 scale) ([7]; 500 g ai/ha): 0; Foxtail, Giant plant response rating (0 to 100 scale) ([8]; 500 g ai/ha): 0; Crabgrass, Large plant response rating ([9]; 500 g ai/ha): 0; Wheat plant response rating ([10]; 500 g ai/ha): 0; Morningglory plant response rating [11]: 0; Corn plant response rating (corn (Zea mays) [12]; 500 g ai/ha): 0; Pigweed plant response rating ([13]; 500 g ai/ha): 0; Barnyardgrass plant response rating ([14]; 500 g ai/ha): 0; Velvetleaf plant response rating ([15]; 500 g ai/ha): 0; Foxtail, Giant plant response rating ([16]; 500 g ai/ha): 0 |
| CON=C(C)c1ccccc1Oc1ncc(Cl)cn1 [Compound 55] | 0 | 0 | 0 | 0 | 0 | 10 | 10 | 0 | 0 | 0 | 0 | 0 | 0 | 0 |  |
| CC(=NOC(C)C)c1ccccc1Oc1ncc(Cl)cn1 [Compound 56] | 40 | 10 | 30 | 60 | 50 | 100 | 70 | 100 | 0 | 0 | 100 | 90 | 90 | 100 | Plant response rating, Ducksalad [17]: 0; Plant response rating, Rice (rice (Oryza sativa)): 0; Plant response rating, Barnyardgrass [18]: 0; Plant response rating, Sedge, Umbrella [19]: 0 |
